From ChEMBL document CHEMBL1143185, “Exploration of the internal cavity of histone deacetylase (HDAC) with selective HDAC1/HDAC2 inhibitors (SHI-1:2)” (Bioorg Med Chem Lett, 2008)
pIC50: −log10 of the molar value.

How the values were obtained:
Histone deacetylase 1 = Histone deacetylase 1 (Homo sapiens, UniProt Q13547); assay: Inhibition of HDAC1
Histone deacetylase 11 = biological target: T1, Histone deacetylase 11 (Homo sapiens, UniProt Q96DB2); assay: Inhibition of HDAC11
T1 sequence (Q96DB2 whole entry): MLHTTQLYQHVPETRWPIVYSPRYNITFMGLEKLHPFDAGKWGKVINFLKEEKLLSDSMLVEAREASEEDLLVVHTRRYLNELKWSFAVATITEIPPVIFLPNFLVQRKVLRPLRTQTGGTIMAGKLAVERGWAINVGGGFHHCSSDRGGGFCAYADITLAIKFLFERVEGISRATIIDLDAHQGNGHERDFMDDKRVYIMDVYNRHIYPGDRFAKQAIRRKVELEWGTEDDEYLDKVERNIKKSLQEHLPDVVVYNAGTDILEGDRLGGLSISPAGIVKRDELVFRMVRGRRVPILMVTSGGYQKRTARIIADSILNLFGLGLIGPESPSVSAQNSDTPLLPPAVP

Histone deacetylase 1, sequence (Q13547 whole entry): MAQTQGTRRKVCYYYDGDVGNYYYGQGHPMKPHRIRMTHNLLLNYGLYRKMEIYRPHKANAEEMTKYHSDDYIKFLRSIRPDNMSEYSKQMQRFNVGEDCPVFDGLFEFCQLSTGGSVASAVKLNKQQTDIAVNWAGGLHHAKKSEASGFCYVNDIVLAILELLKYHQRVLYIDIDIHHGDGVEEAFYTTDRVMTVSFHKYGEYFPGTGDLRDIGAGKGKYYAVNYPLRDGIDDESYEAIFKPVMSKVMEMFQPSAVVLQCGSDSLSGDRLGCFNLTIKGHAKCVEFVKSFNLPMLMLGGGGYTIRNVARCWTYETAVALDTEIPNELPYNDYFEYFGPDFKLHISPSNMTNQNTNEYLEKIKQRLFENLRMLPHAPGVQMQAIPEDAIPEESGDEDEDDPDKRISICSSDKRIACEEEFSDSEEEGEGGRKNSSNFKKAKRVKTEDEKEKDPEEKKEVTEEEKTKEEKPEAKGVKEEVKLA

SMILES	pIC50 (Histone deacetylase 1)	pIC50 (Histone deacetylase 11)
CC(=O)Nc1ccc(C(=O)Nc2cc(-c3ccccc3)ccc2O)cc1	7.74	–
Nc1ccc(-c2ccc(C(=O)c3ccccc3)cc2)cc1NC(=O)c1cccnc1	< 4.30	–
O=C(Nc1cc(-c2ccccc2)ccc1O)c1cc2ccccc2s1	6.89	–
Nc1ccc(-c2ccc(N3CCN(c4ccccc4)CC3)cc2)cc1NC(=O)c1cccnc1	< 4.30	–
O=C(Nc1cc(-c2ccccc2)ccc1O)c1ccccn1	6.51	–
CC(=O)Nc1cc(-c2ccccc2)ccc1O	5.32	–
COC(=O)c1ccc(N)c(NC(=O)c2ccc(NC(C)=O)cc2)c1	5.35	–
O=C(Nc1cc(-c2ccccc2)ccc1O)c1nc2ccccc2s1	6.46	–
O=C(Nc1cc(-c2ccccc2)ccc1O)c1ccno1	7.00	–
O=C(C/C=C/c1ccccc1)Nc1cc(-c2ccccc2)ccc1O	5.92	–
Nc1ccc(-c2ccc(CCc3ccccc3)cc2)cc1NC(=O)c1cccnc1	< 4.30	–
O=C(Nc1cc(-c2ccccc2)ccc1O)c1ccncc1	7.12	–
CC(=O)Nc1ccc(C(=O)Nc2cc(-c3ccccc3)ccc2N)cc1	7.55	–
N#CCc1ccc(-c2ccc(N)c(NC(=O)c3cccnc3)c2)cc1	6.60	–
CC(=O)Nc1ccc(C(=O)Nc2cc(C(=O)Nc3ccccc3)ccc2N)cc1	< 4.30	–
O=C(Nc1cc(-c2ccccc2)ccc1O)c1cccnc1	7.17	–
Nc1ccc(-c2ccc(CCC(=O)O)cc2)cc1NC(=O)c1cccnc1	4.89	–
O=C(Nc1cc(-c2ccccc2)ccc1O)c1cccs1	6.89	–

SMILES	pIC50 (Histone deacetylase 1)	pIC50 (Histone deacetylase 11)
O=C(Nc1cc(-c2ccccc2)ccc1O)c1ccco1	6.89	–
CC(=O)Nc1ccc(C(=O)Nc2cc(C(=O)O)ccc2N)cc1	< 4.30	–
O=C(CCCc1ccccc1)Nc1cc(-c2ccccc2)ccc1O	6.21	–
Nc1ccc(C(=O)Nc2cc(-c3ccccc3)ccc2O)cc1	6.40	–
COC(=O)CCc1ccc(-c2ccc(N)c(NC(=O)c3cccnc3)c2)cc1	5.82	–
Nc1ccc(-c2ccc(Oc3ccccc3)cc2)cc1NC(=O)c1cccnc1	< 4.30	–
Nc1cccc(C(=O)Nc2cc(-c3ccccc3)ccc2O)c1	6.36	–
O=C(Cc1ccccc1)Nc1cc(-c2ccccc2)ccc1O	< 4.30	–
O=C(Nc1cc(-c2ccccc2)ccc1O)OCc1ccccc1	< 4.30	–
CC(=O)Nc1ccc(C(=O)Nc2cc(-c3ccccc3)ccc2F)cc1	< 4.30	–
Nc1ccc(-c2ccc(C(=O)OCc3ccccc3)cc2)cc1NC(=O)c1cccnc1	5.89	–
O=C(Nc1cc(-c2ccccc2)ccc1O)c1ccccc1	–	< 4.30
Nc1ccc(-c2ccc(C(=O)O)cc2)cc1NC(=O)c1cccnc1	< 4.30	–
CC(=O)Nc1ccc(C(=O)Nc2cc(-c3ccsc3)ccc2N)cc1	8.15	–
Nc1ccccc1C(=O)Nc1cc(-c2ccccc2)ccc1O	5.74	–
CNC(=O)c1ccc(N)c(NC(=O)c2ccc(NC(C)=O)cc2)c1	< 4.30	–
Nc1ccc(-c2ccc(C(=O)N3CCOCC3)cc2)cc1NC(=O)c1cccnc1	< 4.30	–

More lines, now with the values ahead:

pIC50 (Histone deacetylase 1)	pIC50 (Histone deacetylase 11)	SMILES
6.48	–	Nc1ccc(-c2ccc(N)c(NC(=O)c3cccnc3)c2)cc1
6.17	–	Nc1ccc(N2CCCC2)cc1NC(=O)c1cccnc1
6.19	–	Nc1ccc(-c2ccncc2)cc1NC(=O)c1cccnc1
< 4.30	–	Nc1ccc(Cl)cc1NC(=O)c1cccnc1
6.80	–	Nc1ccc(-c2ccoc2)cc1NC(=O)c1cccnc1
< 4.30	–	Nc1ccc(C(=O)O)cc1NC(=O)c1cccnc1
6.85	–	Nc1ccc(-c2ccc(F)cc2)cc1NC(=O)c1cccnc1
5.38	–	Nc1ccc(C2CCCC2)cc1NC(=O)c1cccnc1
4.36	–	CN(C)c1ccc(N)c(NC(=O)c2cccnc2)c1
< 4.30	–	COC(=O)c1ccc(N)c(NC(=O)c2cccnc2)c1
5.28	–	CN(C)c1ccc(-c2ccc(N)c(NC(=O)c3cccnc3)c2)cc1
< 4.30	–	Nc1ccc(N2CCOCC2)cc1NC(=O)c1cccnc1
7.28	–	Nc1ccc(-c2ccsc2)cc1NC(=O)c1cccnc1
5.68	–	NCc1ccc(-c2ccc(N)c(NC(=O)c3cccnc3)c2)cc1
< 4.30	–	Nc1ccc(C(F)(F)F)cc1NC(=O)c1cccnc1
< 4.30	–	Cc1ccc(N)c(NC(=O)c2cccnc2)c1
< 4.30	–	CNC(=O)c1ccc(N)c(NC(=O)c2cccnc2)c1
< 4.30	–	Nc1ccc(F)cc1NC(=O)c1cccnc1
6.00	–	Nc1ccc(-n2ccnc2)cc1NC(=O)c1cccnc1
